From patent US7786141B2 (Vertex Pharmaceuticals Incorporated, priority 2004, dated 2010) come the findings set out here.

The term Emax denotes the maximal effect, on the per cent scale that the assay sets.

One test addresses T1, M4 muscarinic receptor (Homo sapiens, UniProt P08173).
T1 construct: expressed in transfected cells; host or cells: CHO (M4-CHO)
T1 sequence (P08173 1-479): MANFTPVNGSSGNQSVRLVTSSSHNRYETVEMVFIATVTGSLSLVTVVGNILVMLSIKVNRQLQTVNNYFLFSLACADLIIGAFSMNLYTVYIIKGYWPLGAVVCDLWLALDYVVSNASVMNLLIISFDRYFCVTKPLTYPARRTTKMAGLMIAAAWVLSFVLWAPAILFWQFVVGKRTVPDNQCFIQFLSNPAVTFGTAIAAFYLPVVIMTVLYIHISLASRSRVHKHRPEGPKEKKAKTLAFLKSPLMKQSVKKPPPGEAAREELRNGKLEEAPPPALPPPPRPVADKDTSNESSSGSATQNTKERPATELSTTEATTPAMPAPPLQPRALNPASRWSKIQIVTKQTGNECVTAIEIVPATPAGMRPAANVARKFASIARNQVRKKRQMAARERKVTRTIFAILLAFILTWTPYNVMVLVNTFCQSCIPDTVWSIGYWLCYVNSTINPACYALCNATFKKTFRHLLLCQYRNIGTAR
The experiment in a line: Functional mobilization of intracellular calcium (FLIPR) in M4-CHO cells. The format is cell-based. Particulars: Table 4; for Emax: 100% efficacy is the maximum response obtained with the Carbachol control; for M4 Activity: modulating M4 receptor. An outline of the steps: (§1)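 Two modes: direct compound addition for agonism, or 15 min compound pre-incubation (or co-application) before carbachol at EC80 for inhibition. Calcium signal from Fluo-3 AM or Calcium 3 dye in CHO cells, 1 mM probenecid, pH 7.4, read 60 sec at 488/540 nm; DMSO 0.5% final.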

A further test deals with T2, M1 muscarinic receptor (Homo sapiens, UniProt P11229).
T2 construct: expressed in transfected cells; host or cells: CHO (M1-CHO)
T2 sequence (P11229 1-460): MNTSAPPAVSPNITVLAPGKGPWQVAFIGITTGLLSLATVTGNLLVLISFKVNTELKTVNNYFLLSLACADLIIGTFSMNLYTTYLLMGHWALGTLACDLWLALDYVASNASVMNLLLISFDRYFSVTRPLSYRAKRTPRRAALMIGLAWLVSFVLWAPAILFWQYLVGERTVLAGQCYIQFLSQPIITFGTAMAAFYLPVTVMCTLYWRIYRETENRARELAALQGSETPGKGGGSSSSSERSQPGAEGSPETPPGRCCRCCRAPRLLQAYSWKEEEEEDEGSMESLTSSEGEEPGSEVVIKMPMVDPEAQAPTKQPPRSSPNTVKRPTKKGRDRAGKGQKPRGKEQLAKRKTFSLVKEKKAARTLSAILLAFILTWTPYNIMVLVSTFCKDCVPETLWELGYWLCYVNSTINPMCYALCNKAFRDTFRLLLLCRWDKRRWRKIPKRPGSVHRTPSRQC
Put plainly: Functional mobilization of intracellular calcium (FLIPR) in M1-CHO cells. The format is cell-based. Conditions: Table 4; for Emax: 100% efficacy is the maximum response obtained with the Carbachol control; for M1 Activity: modulating M1 receptor. An outline of the steps: as §1
Background: Calcium assays in cells follow changes in intracellular calcium, usually with a dye or a luminescent sensor.

Molecules are shown by their SMILES.

In the case of `CC(=O)N1CC2(CCN(C3CCNCC3)CC2)c2cc(F)ccc21` [compound 547], at M4 muscarinic receptor, the Emax was in the range of 25 to 100% and the “M4 Activity” value is reported as “x (activity was measured to be greater than 5.0 μM)”. Besides, on M1 muscarinic receptor, the maximal effect (Emax) fell in the range of 25 to 100%; the “M1 Activity” value is “xx (activity was measured to be between 2.0 μM and 5.0 μM)”.

For `O=C(O)C1CC2(CCN(CC3CCCC3)CC2)c2ccccc21` (centres unmarked) [compound 548], on M4 muscarinic receptor, the Emax was less than 25% and the “M4 Activity” value is “x (activity was measured to be greater than 5.0 μM)”. On M1 muscarinic receptor, the Emax is less than 25% and the “M1 Activity” value is given as “x (activity was measured to be greater than 5.0 μM)”.

As for `C#CCCOC(=O)N1CC[C@H](CN2CCC3(CC2)CN(C(C)=O)c2ccccc23)C1` [compound 549], at M4 muscarinic receptor, the Emax was less than 25% and the “M4 Activity” value was “x (activity was measured to be greater than 5.0 μM)”. Besides, on M1 muscarinic receptor, the Emax was less than 25% and the “M1 Activity” value is reported as “x (activity was measured to be greater than 5.0 μM)”.

As to `CC(=O)N1CC2(CCN(CC3CCN(C(=O)O[C@@H]4CCOC4)CC3)CC2)c2cc(C)ccc21` [compound 550], at M4 muscarinic receptor, the Emax is less than 25% and the “M4 Activity” value is on record as “x (activity was measured to be greater than 5.0 μM)”. In addition, on M1 muscarinic receptor, the Emax is less than 25% and the “M1 Activity” value is “x (activity was measured to be greater than 5.0 μM)”.

Take `CCOC(=O)N1CCC(N2CCC3(CC2)CN(C(C)=O)c2c(C(F)(F)F)cccc23)CC1` [compound 551]: at M4 muscarinic receptor, the Emax lay in the range of 25 to 100% and the “M4 Activity” value is “x (activity was measured to be greater than 5.0 μM)”. At M1 muscarinic receptor, the Emax was less than 25% and the “M1 Activity” value is “x (activity was measured to be greater than 5.0 μM)”.

Regarding `COc1ccccc1N1CCC(N2CCC3(CC2)CN(C(=O)N(C)C)c2ccc(F)cc23)CC1` [compound 552], at M4 muscarinic receptor, the maximal effect (Emax) was in the range of 25 to 100% and the “M4 Activity” value is on record as “x (activity was measured to be greater than 5.0 μM)”. Also, at M1 muscarinic receptor, the maximum response (Emax) was in the range of 25 to 100% and the “M1 Activity” value is given as “x (activity was measured to be greater than 5.0 μM)”.

For the molecule `C#CCCC(=O)N1CCC(N2CCC3(CC2)CN(C(=O)N(C)C)c2ccc(F)cc23)CC1` [compound 553], on M4 muscarinic receptor, the maximum response (Emax) is less than 25% and the “M4 Activity” value was “xxx (activity was measured to be less than 2.0 μM)”. On M1 muscarinic receptor, the Emax was 25 to 100% and the “M1 Activity” value is “xxx (activity was measured to be less than 2.0 μM)”.

Take `CCOC(=O)N1CCC(CN2CCC3(CC2)CN(C(C)=O)c2ccc(C(C)C)cc23)CC1` [compound 555]: on M4 muscarinic receptor, the maximal effect (Emax) fell in the range of 25 to 100%; the “M4 Activity” value was “xx (activity was measured to be between 2.0 μM and 5.0 μM)”. Further, at M1 muscarinic receptor, the maximal effect (Emax) is 25 to 100% and the “M1 Activity” value is “xxx (activity was measured to be less than 2.0 μM)”.

As to `CC(=O)N1CC2(CCN(C3CCN(c4cncc(-c5ccc(F)cc5)n4)CC3)CC2)c2ccccc21` [compound 556], at M4 muscarinic receptor, the maximum response (Emax) is less than 25% and the “M4 Activity” value is “x (activity was measured to be greater than 5.0 μM)”. On M1 muscarinic receptor, the maximal response (Emax) is 25 to 100% and the “M1 Activity” value is “x (activity was measured to be greater than 5.0 μM)”.

As to `CC(C)OC(=O)N1CC[C@@H](CN2CCC3(CC2)CN(C(=O)N(C)C)c2ccc(F)cc23)C1` [compound 558], at M4 muscarinic receptor, the Emax is 25 to 100% and the “M4 Activity” value is listed as “xxx (activity was measured to be less than 2.0 μM)”. Besides, at M1 muscarinic receptor, the maximal response (Emax) is 25 to 100% and the “M1 Activity” value was “xxx (activity was measured to be less than 2.0 μM)”.

On to `CCOC(=O)N1CCC(N2CCC3(CC2)CN(C(C)=O)c2c(-c4ccoc4)cccc23)CC1` [compound 559], for which, at M4 muscarinic receptor, the Emax was 25 to 100% and the “M4 Activity” value is “x (activity was measured to be greater than 5.0 μM)”. Besides, on M1 muscarinic receptor, the Emax was in the range of 25 to 100% and the “M1 Activity” value is given as “xxx (activity was measured to be less than 2.0 μM)”.
